Reference: patent US12378224B2 (Dong-A Socio Holdings Co., Ltd., priority 2016, dated 2025)

Assays:
human MER (528-end) = human MER (528-end) (Homo sapiens (Human), UniProt Q12866); experiment: HTRF Kinase Activity Biochemical Assay (KinEASE-TK); details: 10 uM ATP
Summary of the method: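 Recombinant human MER (528-end) phosphorylated biotin-TK peptide substrate, 1 h at room temperature. Reaction stopped with detection buffer containing 0.375 nM Eu3+-cryptate anti-TK antibody and 0.062 uM streptavidin-XL665, 1 h further. Activity taken as HTRF ratio 665/620 nm ×10,000, 340 nm excitation.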

[1] = biological target: CD8-MerTK (Ba/F3-CDM cells) (Homo sapiens, UniProt Q12866); experiment: In Cell MER Kinase Assay Using BaF3 Cellular System; assay type: cell-based; details: Ba/F3-CDM proliferation without IL-3, 48 hours, Celltiter-Glo
Sequence of CD8-MerTK (Ba/F3-CDM cells) (Q12866 21-999 limits assumed, stated change not applied): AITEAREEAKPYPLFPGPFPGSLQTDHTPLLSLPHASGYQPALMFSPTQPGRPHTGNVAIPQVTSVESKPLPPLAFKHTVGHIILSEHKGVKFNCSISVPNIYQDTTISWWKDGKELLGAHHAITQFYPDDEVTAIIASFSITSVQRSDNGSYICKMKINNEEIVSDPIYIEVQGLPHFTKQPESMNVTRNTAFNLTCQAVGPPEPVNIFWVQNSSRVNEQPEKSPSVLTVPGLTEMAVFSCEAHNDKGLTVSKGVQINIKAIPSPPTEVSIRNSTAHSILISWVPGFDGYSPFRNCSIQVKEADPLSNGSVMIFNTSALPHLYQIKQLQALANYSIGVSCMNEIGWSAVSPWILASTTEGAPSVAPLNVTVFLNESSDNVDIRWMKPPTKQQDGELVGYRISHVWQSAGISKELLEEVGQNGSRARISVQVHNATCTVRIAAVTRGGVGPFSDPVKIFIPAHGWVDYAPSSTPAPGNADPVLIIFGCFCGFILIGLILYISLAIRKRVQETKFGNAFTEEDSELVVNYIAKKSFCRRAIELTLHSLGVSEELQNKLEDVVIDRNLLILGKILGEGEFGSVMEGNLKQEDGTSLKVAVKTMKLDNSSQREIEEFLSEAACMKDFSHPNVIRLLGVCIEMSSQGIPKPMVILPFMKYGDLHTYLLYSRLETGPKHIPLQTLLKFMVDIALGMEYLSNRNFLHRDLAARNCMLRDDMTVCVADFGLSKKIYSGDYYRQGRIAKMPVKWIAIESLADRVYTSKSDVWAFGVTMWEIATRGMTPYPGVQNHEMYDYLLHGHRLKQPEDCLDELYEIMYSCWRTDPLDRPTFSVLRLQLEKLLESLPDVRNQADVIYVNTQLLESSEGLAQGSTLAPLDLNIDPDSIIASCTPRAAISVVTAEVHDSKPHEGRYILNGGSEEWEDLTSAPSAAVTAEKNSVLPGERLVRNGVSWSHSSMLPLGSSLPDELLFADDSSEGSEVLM
Excerpt: CD8-MerTK is a chimeric fusion protein consisting of the extracellular and transmembrane domains of the human CD8α (amino acids 1 to 209) at its N-terminus and the kinase domain and intracellular parts of MerTK (amino acids 521-994) at its C-terminus. To establish an in cell kinase assay for MerTK kinase, the IL-3 dependent Ba/F3 cells of murine lymphoid origin was transfected with CD8-MerTK. The resulting Ba/F3-CDM line was then validated that Ba/F3-CDM cell proliferation is completely dependent on the activity of MerTK kinase activity when growing in the absence of IL-3. For a routine cellular assay, Ba/F3-CDM cells were seeded at 2,000 cells per well in 384-well cell culture plate containing DMEM/10% FBS culture media and incubated for 24 hours before addition of compounds pre-diluted in culture media. Following compound treatment, cells were further incubated for 48 hours and the proliferation was measured. To discriminate a Ba/F3 growth inhibition by a specific inhibition of MerTK kinase following compound treatment vs growth inhibition due to a non-specific unintended cytotoxicity of compounds, we routinely carried out control sets of Ba/F3 cells in parallel that grown in IL3-supplemented growth media. In the presence of IL-3, the proliferation of Ba/F3 is no longer dependent on the MerTK activity. Cell growth and proliferation was measured with Celltiter-Glo™ system (Promega, USA) according to the manufacturer's instruction. The half-maximal growth inhibitory concentration (GI50) value was calculated with Prism6.0 software (GraphPad, USA).

[2] = biological target: BCR fusion to kinase domain of MerTK (Ba/F3-MerTK) (Homo sapiens, UniProt Q12866); experiment: In Cell TAM Kinase Assay Using BaF3 Cellular System; assay type: cell-based, murine; details: Ba/F3 BCR-kinase fusion proliferation, 72 hours, Cell Titer Glo; kinase not given; read-out: IC50
Sequence of BCR fusion to kinase domain of MerTK (Ba/F3-MerTK) (Q12866 21-999 limits assumed, change not shown): as the sequence (Q12866 21-999 limits assumed, stated change not applied) above
Summary of the method: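 Ba/F3 murine pro-B cells expressing BCR–MerTK kinase-domain fusion (IL-3 independent), seeded at 1,000 cells/well onto compound and grown 72 h. Viability read by CellTiter-Glo 2.0 luminescence after 30 min at room temperature.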

Sequence of human MER (528-end) (Q12866 528-999 limits assumed): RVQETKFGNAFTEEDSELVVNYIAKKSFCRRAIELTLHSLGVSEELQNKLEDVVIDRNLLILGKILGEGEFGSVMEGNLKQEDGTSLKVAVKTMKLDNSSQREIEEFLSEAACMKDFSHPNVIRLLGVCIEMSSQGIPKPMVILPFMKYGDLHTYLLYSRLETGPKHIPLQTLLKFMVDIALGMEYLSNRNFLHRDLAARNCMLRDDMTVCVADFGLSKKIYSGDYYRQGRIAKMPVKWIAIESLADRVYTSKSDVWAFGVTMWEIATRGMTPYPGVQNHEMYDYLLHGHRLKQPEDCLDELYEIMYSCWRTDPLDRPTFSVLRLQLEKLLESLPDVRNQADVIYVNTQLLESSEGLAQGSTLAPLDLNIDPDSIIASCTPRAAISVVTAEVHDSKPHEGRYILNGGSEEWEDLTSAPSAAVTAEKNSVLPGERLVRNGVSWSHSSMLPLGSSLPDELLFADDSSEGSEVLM

| IC50 (human MER (528-end)) [nM] | IC50 [2] [nM] | Molecule | IC50 [1] [nM] |
| --- | --- | --- | --- |
| 10 to 100 | > 1000 | Cn1cc(-c2cnc(N)c(C(=O)N[C@@H]3CCN(C(=O)c4ccc(-c5ccc(Oc6ccc(C=O)cc6)cc5)cc4)C3)c2)cn1 [Example 811, (R)-2-amino-N-(1-(4′-(4-formylphenoxy)-[1,1′-biphenyl]-4-carbonyl)pyrrolidin-3-yl)-5-(1-methyl-1H-pyrazol-4-yl)nicotinamide] | – |
| 10 to 100 | > 1000 | Cn1cc(-c2cnc(N)c(C(=O)N[C@@H]3CCN(C(=O)c4ccc(-c5ccc(Oc6ccc(C(=O)O)cc6)cc5)cc4)C3)c2)cn1 [Example 812, (R)-4-((4′-(3-(2-amino-5-(1-methyl-1H-pyrazol-4-yl)nicotinamido)pyrrolidine-1-carbonyl)-[1,1′-biphenyl]-4-yl)oxy)benzoic acid] | – |
| 100 to 1000 | > 1000 | Cn1cc(-c2cnc(N)c(C(=O)N[C@@H]3CCN(C(=O)c4ccc5cc(NC6CCNCC6)ccc5c4)C3)c2)cn1 [Example 816, (R)-2-amino-5-(1-methyl-1H-pyrazol-4-yl)-N-(1-(6-(piperidin-4-ylamino)-2-naphthoyl)pyrrolidin-3-yl)nicotinamide] | – |
| 100 to 1000 | > 1000 | Cn1cc(-c2cnc(N)c(C(=O)N[C@@H]3CCN(C(=O)c4ccc5cc(NC6CCN(CCO)CC6)ccc5c4)C3)c2)cn1 [Example 817, (R)-2-amino-N-(1-(6-((1-(2-hydroxyethyl)piperidin-4-yl)amino)-2-naphthoyl)pyrrolidin-3-yl)-5-(1-methyl-1H-pyrazol-4-yl)nicotinamide] | – |
| 10 to 100 | > 1000 | CN(c1ccc2cc(C(=O)N3CC[C@@H](NC(=O)c4cc(-c5cnn(C)c5)cnc4N)C3)ccc2c1)C1CCNCC1 [Example 818, (R)-2-amino-N-(1-(6-(methyl(piperidin-4-yl)amino)-2-naphthoyl)pyrrolidin-3-yl)-5-(1-methyl-1H-pyrazol-4-yl)nicotinamide] | – |
| 10 to 100 | > 1000 | Cn1cc(-c2cnc(N)c(C(=O)N[C@@H]3CCN(C(=O)c4ccc(-c5ccc(CC6CCN(CCO)CC6)cc5)cc4)C3)c2)cn1 [Example 819, (R)-2-amino-N-(1-(4′-((1-(2-hydroxyethyl)piperidin-4-yl)methyl)-[1,1′-biphenyl]-4-carbonyl)pyrrolidin-3-yl)-5-(1-methyl-1H-pyrazol-4-yl)nicotinamide] | – |
| 10 to 100 | 100 to 500 | CN(c1ccc2cc(C(=O)N3CC[C@@H](NC(=O)c4cc(-c5cnn(C)c5)cnc4N)C3)ccc2c1)C1CCN(CCO)CC1 [Example 820, (R)-2-amino-N-(1-(6-((1-(2-hydroxyethyl)piperidin-4-yl)(methyl)amino)-2-naphthoyl)pyrrolidin-3-yl)-5-(1-methyl-1H-pyrazol-4-yl)nicotinamide] | – |
| 10 to 100 | > 1000 | CC(/C=C/c1ccc(C(=O)N2CC[C@@H](NC(=O)c3cc(-c4cnn(C)c4)cnc3N)C2)cc1)N1CCN(CCO)CC1 (stereo partly drawn) [Example 823, 2-amino-N-((3R)-1-(4-((E)-3-(4-(2-hydroxyethyl)piperazin-1-yl)but-1-en-1-yl)benzoyl)pyrrolidin-3-yl)-5-(1-methyl-1H-pyrazol-4-yl)nicotinamide] | – |
| > 1000 | > 1000 | Cn1cc(-c2cnc(N)c(C(=O)N[C@@H]3CCN(C(=O)c4ccc(Oc5cccc([N+](=O)[O-])c5)cc4)C3)c2)cn1 [Example 829, (R)-2-amino-5-(1-methyl-1H-pyrazol-4-yl)-N-(1-(4-(3-nitrophenoxy)benzoyl)pyrrolidin-3-yl)nicotinamide] | – |
| 100 to 1000 | > 1000 | Cn1cc(-c2cnc(N)c(C(=O)N[C@@H]3CCN(C(=O)c4ccc(Oc5cccc(N)c5)cc4)C3)c2)cn1 [Example 830, (R)-2-amino-N-(1-(4-(3-aminophenoxy)benzoyl)pyrrolidin-3-yl)-5-(1-methyl-1H-pyrazol-4-yl)nicotinamide] | – |
| 100 to 1000 | > 1000 | Cn1cc(-c2cnc(N)c(C(=O)N[C@@H]3CCN(C(=O)c4ccc(Oc5ccc([N+](=O)[O-])cc5)cc4)C3)c2)cn1 [Example 831, (R)-2-amino-5-(1-methyl-1H-pyrazol-4-yl)-N-(1-(4-(4-nitrophenoxy)benzoyl)pyrrolidin-3-yl)nicotinamide] | – |
| > 1000 | > 1000 | Cn1cc(-c2cnc(N)c(C(=O)N[C@@H]3CCN(C(=O)c4ccc(Oc5ccc(N)cc5)cc4)C3)c2)cn1 [Example 832, (R)-2-amino-N-(1-(4-(4-aminophenoxy)benzoyl)pyrrolidin-3-yl)-5-(1-methyl-1H-pyrazol-4-yl)nicotinamide] | – |
| 100 to 1000 | > 1000 | CN(c1ccc(-c2ccc(C(=O)N3CC[C@@H](NC(=O)c4cc(-c5cnn(C)c5)cnc4N)C3)cc2)cc1)c1ccc(N)cc1F [Example 835, (R)-2-amino-N-(1-(4′-((4-amino-2-fluorophenyl)(methyl)amino)-[1,1′-biphenyl]-4-carbonyl)pyrrolidin-3-yl)-5-(1-methyl-1H-pyrazol-4-yl)nicotinamide] | – |
| 100 to 1000 | > 1000 | Cc1cc(N)ccc1N(C)c1ccc(-c2ccc(C(=O)N3CC[C@@H](NC(=O)c4cc(-c5cnn(C)c5)cnc4N)C3)cc2)cc1 [Example 836, (R)-2-amino-N-(1-(4′-((4-amino-2-methylphenyl)(methyl)amino)-[1,1′-biphenyl]-4-carbonyl)pyrrolidin-3-yl)-5-(1-methyl-1H-pyrazol-4-yl)nicotinamide] | – |
| 100 to 1000 | > 1000 | CN(c1ccc(-c2ccc(C(=O)N3CC[C@@H](NC(=O)c4cc(-c5cnn(C)c5)cnc4N)C3)cc2)cc1)c1ccc(N)cc1Cl [Example 837, (R)-2-amino-N-(1-(4′-((4-amino-2-chlorophenyl)(methyl)amino)-[1,1′-biphenyl]-4-carbonyl)pyrrolidin-3-yl)-5-(1-methyl-1H-pyrazol-4-yl)nicotinamide] | – |
| 100 to 1000 | > 1000 | Cn1cc(-c2cnc(N)c(C(=O)N[C@@H]3CCN(C(=O)c4ccc(OCc5cccc(N)c5)cc4)C3)c2)cn1 [Example 838, (R)-2-amino-N-(1-(4-((3-aminobenzyl)oxy)benzoyl)pyrrolidin-3-yl)-5-(1-methyl-1H-pyrazol-4-yl)nicotinamide] | – |

| Molecule | IC50 (human MER (528-end)) [nM] | IC50 [2] [nM] | IC50 [1] [nM] |
| --- | --- | --- | --- |
| Cc1cc(-c2ccc(CN3CCN(C)CC3)cc2)ccc1C(=O)N1CC[C@@H](NC(=O)c2cc(-c3cnn(C)c3)cnc2N)C1 [Example 391, (R)-2-amino-5-(1-methyl-1H-pyrazol-4-yl)-N-(1-(3-methyl-4^1-((4-methylpiperazin-1-yl)methyl)-[1,1′-biphenyl]-4-carbonyl)pyrrolidin-3-yl)nicotinamide] | > 1000 | – | > 1000 |
| Cc1cc(C(=O)N2CC[C@@H](NC(=O)c3cc(-c4cnn(C)c4)cnc3N)C2)ccc1-c1ccc(CN2CCN(C)CC2)cc1 [Example 392, (R)-2-amino-5-(1-methyl-1H-pyrazol-4-yl)-N-(1-(2-methyl-4^1-((4-methylpiperazin-1-yl)methyl)-[1,1′-biphenyl]-4-carbonyl)pyrrolidin-3-yl)nicotinamide] | 100 to 1000 | – | > 1000 |
| Nc1ncc(-c2ccc(N3CCOCC3)nc2)cc1C(=O)N[C@@H]1CCN(C(=O)c2ccc(-c3ccccc3)cc2)C1 [Example 559] | 10 to 100 | – | 100 to 500 |
| Nc1ncc(-c2ccccc2C(=O)O)cc1C(=O)N[C@@H]1CCN(C(=O)c2ccc(-c3ccc(F)cc3Cl)cc2)C1 [Example 777, (R)-2-(6-amino-5-((1-(2′-chloro-4′-fluoro-[1,1′-biphenyl]-4-carbonyl)pyrrolidin-3-yl)carbarnoyl)pyridin-3-yl)benzoic acid] | > 1000 | – | > 1000 |
| (R)-2-amino-N-(1-(2-chloro-[1,1′-biphenyl]-4-carbonyl)pyrrolidin-3-yl)-5-(1-methyl-1H-pyrazol-4-yl)nicotinamide [Example 394] | 100 to 1000 | – | > 1000 |
| (R)-2-amino-N-(1-(2′-chloro-4′-fluoro-[1,1′-biphenyl]-4-carbonyl)pyrrolidin-3-yl)-5-(2-(piperidin-4-ylmethoxy)phenyl)nicotinamide [Example 771] | 100 to 1000 | > 1000 | – |
| (R)-2-amino-N-(1-(4′-(4-hydroxyphenoxy)-[1,1′-biphenyl]-4-carbonyl)pyrrolidin-3-yl)-5-(1-methyl-1H-pyrazol-4-yl)nicotinamide [Example 800] | 10 to 100 | > 1000 | – |
